Measured values taken from patent publication EP1067939B1, “USE OF STEROIDAL ALKALOID DERIVATIVES AS INHIBITORS OF HEDGEHOG PROTEIN SIGNALING PATHWAYS” (The Johns Hopkins University, priority 1998, dated 1999).

Columns and labels:
[1] = biological target: T1, Shh (Mus musculus, UniProt Q62226); experiment: Shh processing in transiently-transfected COS-7 or QT6 cells; format: cell-based
T1 construct: expressed in transfected cells; host or cells: HK293 cells, Ecdysone-Inducible Mammalian Expression System (Invitrogen)

[2] = tested on: chick embryos; conditions: in ovo, highest concentrations tested, 50µM
Description: • 1. M. Hammerschmidt, A. Brook, A. P. McMahon, Trends Genet, 13, 14-21 (1997). • 2. C. Chiang, et al., Nature, 383,407-413 (1996). • 3. Y. Tanabe, T. M. Jessell, Science 274, 1115-1123 (1996). • 4. T. P. Yamaguchi, Curr. Opin. Genet. Dev. 7, 513-518 (1997). • 5. N. Shubin, C. Tabin, S. Carroll, Nature 388, 639-648 (1997). • 6. A. E. Oro, et al., Science 276, 817-821 (1997). • 7. M. M. Cohen, K. K. Sulik, J. Craniofac. Genet. Deve. Biol. 12, 196-244 (1992). • 8. E. Belloni, et al., Nature Genet. 14, 353-356 (1996). • 9. E. Roessler, et al., Nature Genet. 14, 357-360 (1996). • 10. J. A. Porter, et al., Nature 374, 363-366 (1995). • 11. J. A. Porter, K. E. Young, P. A. Beacy, Science 274, 255-259 (1996b). • 12. J. J. Lee, et al., Science 266, 1528-1537 (1994). • 13. J. A. Porter, et al., Cell 86, 21-34 (1996a). • 14. C. Roux, Arch. Franc. Pediatr. 21, 451-464 (1964). • 15. C. Roux, C. R. Soc. Biol. 160, 1353-1357 (1966). • 16. D. B. Dehart, L. Lanoue, G. S. Tinit, K. K. Sulik, Am J. Med. Genet. 68, 328-337 (1997). • 17. M. Kraml, J. F. Bagli, D. Dvornik, Biochem. and Biophysical Res. Com. 15, 455-457 (1964). • 18. J. Avigan, D. Steinberg, H. E. Vroman, M. J. Thompson, E. Mosettig, J. Biol. Chem 235, 3123-3126 (1960). • 19. R. B. Clayton, A. N. Nelson, I. D. Frantz Jr., J. Lipid Res. 4, 166-178 (1963). • 20. J. Aufenanger, J. Pill, K. Stegmeier, F. H. Schmidt, Horm. Metabol. Res. 17, 612-613 (1986). • 21. […] G. Popjak, A. Meenean, E. J. Parish, W. D. Nes, J. Biol. Chem 264,6230-6238 (1989). • 23. H. Yoshikawa, Brain Deve. 13, 115-120 (1991). • 24. R. I. Kelley, et al., Am. J. Of Med. Gen. 66, 478-484 (1996). • 25. G. S. Tint, et al., New England Journal of Medicine 330, 107-113 (1994). • 26. T.E. Willnow, et al., Proc. Natl. Acad. Sci USA 93, 8460-8464 (1996). • 27. S. Stefansson, D. A. Chappell, K. M. Argraves, D. K. Strickland, W. S. Argraves, J. Biol. Chem. 270, 19417-19421 (1995). • 28. W. Binns, L. F. James, J. L. Shupe, G. Everett, Am. J. Vet. Res. 24, 1164-1174 (1963). • 29. R. F. Keeler, W. Binns, Teratology 1, 5-10 (1968). • 30. P. A. Beachy, et al., CSH Symp. Quant. Biol. 62, in press (1997). • 31. […]

T1 sequence (Q62226 25-437): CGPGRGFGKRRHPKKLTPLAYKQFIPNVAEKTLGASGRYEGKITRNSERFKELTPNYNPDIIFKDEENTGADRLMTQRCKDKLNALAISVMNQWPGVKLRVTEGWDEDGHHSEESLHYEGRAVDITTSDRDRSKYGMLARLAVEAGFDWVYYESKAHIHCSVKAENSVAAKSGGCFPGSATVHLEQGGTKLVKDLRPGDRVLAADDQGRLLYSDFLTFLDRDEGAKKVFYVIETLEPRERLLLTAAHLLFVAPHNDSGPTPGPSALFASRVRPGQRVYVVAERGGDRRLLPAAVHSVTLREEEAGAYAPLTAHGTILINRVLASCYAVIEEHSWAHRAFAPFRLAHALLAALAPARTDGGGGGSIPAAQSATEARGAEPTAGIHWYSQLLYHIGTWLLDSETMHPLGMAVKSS

Row | SMILES | Shh processing efficiency [1] | embryos displayed normal morphology [2]
1 | C[C@H]1CC[C@]2(NC1)O[C@H]1C[C@H]3[C@@H]4CC[C@H]5C[C@@H](O)CC[C@]5(C)[C@H]4CC[C@]3(C)[C@H]1[C@@H]2C [Tomatidine, tomatidine] | did not observe any effect | 
2 | CC1=C2C[C@H]3[C@@H](CC=C4C[C@@H](O)CC[C@@]43C)[C@@H]2CC[C@]12O[C@@H]1C[C@H](C)CN[C@H]1[C@H]2C [Cyclopamine, cyclopamine] |  | 2/10
